What was measured:
[1] = Pharmacokinetics: clearance of p52 from the blood of mice; assay type: in vivo, mouse; settings: LC-MS, n=6/group
Protocol: Supplemental Figure 2 . Quality analysis, in v itro potency, and clearance from the blood of mice for p52. A Analytical RP-HPLC spectrum for p52 was recorded using an Agilent 1260 Infinity system. B Spectrographic data from the analysis of purified p52 by single quadrupolar LC/MS using a Waters Mass Lynx 3100 platform. C Peptide in vitro potencies determined in CHO cells transfected with mouse GPR10 or GPR74 receptor.
For GPR74 potency was determined for peptide mediated inhibition of forskolin stimulated cAMP accumulation, as described (48). For GPR10 potency was determined in calcium mobilization assay in cells incubated with FLuo- 4AM calcium assay kit and measured on a FLIPR TETRA (Molecular Devices, Sunnyvale, CA). Shown are log(1/EC50) (1/nM) values for cAMP generation via GRP10 and GPR74 for p52, PrRP-31, and NPFF. ND- not detected. D Mice were injected with the indicated doses of p52.
Blood was drawn at the indicated times after dosing and p52 was quantified by LC-MS.
Shown are mean +/- STD; individual measurements are shown, as well; n=6/group. ND - […]
(1 picture or pasted object on this page, not shown here)

GPR147 = settings: cited from earlier work
Text: Thus, PrRP analogs like p52 might act via GPR147 to decrease food intake. It is not clear whether p52 and other PrRP analogs can suppress food intake via GRP10 and/or GPR74 in the absence of GPR147, but it would be interesting to assess this possibility, as well as potential roles for each of these rece ...

Compound | p52 detectable in the circulation for at least 4 h ([1]; dose 1.5 mg/kg) | time p52 remained detectable in the circulation ([1]; dose 5 mg/kg) | affinity for GPR147 (GPR147)
CCCCCCCCCCCCCCCC(=O)N[C@@H](CO)C(=O)N[C@@H](CCCNC(=N)N)C(=O)N[C@H](C(=O)N[C@@H](Cc1c[nH]cn1)C(=O)N[C@@H](CCCNC(=N)N)C(=O)N[C@@H](Cc1c[nH]cn1)C(=O)N[C@@H](CO)C(=O)N[C@@H](CCCC)C(=O)N[C@@H](CCC(=O)O)C(=O)N[C@H](C(=O)N[C@@H](CCCNC(=N)N)C(=O)N[C@H](C(=O)N1CCC[C@H]1C(=O)N[C@@H](CC(=O)O)C(=O)N[C@H](C(=O)N[C@@H](CC(N)=O)C(=O)N1CCC[C@H]1C(=O)N[C@@H](C)C(=O)N[C@@H](Cc1c[nH]c2ccccc12)C(=O)N[C@@H](Cc1ccc(O)cc1)C(=O)N[C@@H](C)C(=O)N[C@@H](CO)C(=O)N[C@@H](CCCNC(=N)N)C(=O)NCC(=O)N[C@H](C(=O)N[C@@H](CCCNC(=N)N)C(=O)N1CCC[C@H]1C(=O)N[C@H](C(=O)NCC(=O)N[C@@H](CCCNC(=N)N)C(=O)N[C@@H](Cc1ccc([N+](=O)[O-])cc1)C(N)=O)C(C)C)[C@@H](C)CC)[C@@H](C)CC)[C@@H](C)O)[C@@H](C)CC)[C@@H](C)O [p52] | not | at least 4 h | –
prolactin releasing peptide [PrRP] | – | – | measurable (albeit low) affinity

— publication PMC11773474, “Roles for Prlhr/GPR10 and Npffr2/GPR74 in feeding responses to PrRP” (Molecular Metabolism, 2025)
